# Laboratory results from PubChem BioAssay (NCI).
#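 Dose response: 5 concentrations. Exposure: 48 h. Format: 96-well plates. Endpoint: linear interpolation; highest concentration if not reached. The concentration for 50% growth inhibition is given as GI50. TGI: concentration producing complete growth inhibition.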
# Key:
# Test in all cases: NCI anticancer screen, dose series, 48 h
# SW-620 colon = test system: SW-620 colon
# 786-0 renal = test system: 786-0 renal
# LOX IMVI melanoma = test system: LOX IMVI melanoma
# UACC-62 melanoma = test system: UACC-62 melanoma
# SK-MEL-28 melanoma = test system: SK-MEL-28 melanoma
# MDA-MB-231 breast = test system: MDA-MB-231 breast
# COLO 205 colon = test system: COLO 205 colon
# OVCAR-5 ovarian = test system: OVCAR-5 ovarian
# UO-31 renal = test system: UO-31 renal
# RXF 393 renal = test system: RXF 393 renal
# OVCAR-4 ovarian = test system: OVCAR-4 ovarian
# OVCAR-3 ovarian = test system: OVCAR-3 ovarian
# SF-295 CNS = test system: SF-295 CNS
# U251 CNS = test system: U251 CNS
# CCRF-CEM leukemia = test system: CCRF-CEM leukemia
# IGROV1 ovarian = test system: IGROV1 ovarian
# HT29 colon = test system: HT29 colon
# MDA-MB-435 = test system: MDA-MB-435
# BT-549 breast = test system: BT-549 breast
# MALME-3M melanoma = test system: MALME-3M melanoma
# NCI-H460 lung = test system: NCI-H460 lung
# ACHN renal = test system: ACHN renal
# T-47D breast = test system: T-47D breast
# M14 melanoma = test system: M14 melanoma
# SNB-19 CNS = test system: SNB-19 CNS
# UACC-257 melanoma = test system: UACC-257 melanoma
# HS 578T breast = test system: HS 578T breast
# SF-539 CNS = test system: SF-539 CNS
# HL-60(TB) leukemia = test system: HL-60(TB) leukemia
# HCT-15 colon = test system: HCT-15 colon
# HCT-116 colon = test system: HCT-116 colon
# KM12 colon = test system: KM12 colon
# HCC-2998 colon = test system: HCC-2998 colon
# NCI-H522 lung = test system: NCI-H522 lung
# K-562 leukemia = test system: K-562 leukemia
# MCF7 breast = test system: MCF7 breast
# A498 renal = test system: A498 renal
# HOP-92 NSCLC = test system: HOP-92 NSCLC
# HOP-62 NSCLC = test system: HOP-62 NSCLC
# OVCAR-8 ovarian = test system: OVCAR-8 ovarian
# SK-MEL-5 melanoma = test system: SK-MEL-5 melanoma
# PC-3 prostate = test system: PC-3 prostate
# SK-OV-3 ovarian = test system: SK-OV-3 ovarian
# A549 NSCLC = test system: A549 NSCLC
# SN12C renal = test system: SN12C renal
# TK-10 renal = test system: TK-10 renal
# RPMI-8226 leukemia = test system: RPMI-8226 leukemia
# NCI-H23 lung = test system: NCI-H23 lung
# NCI-H226 lung = test system: NCI-H226 lung
# NCI/ADR-RES ovarian = test system: NCI/ADR-RES ovarian
# SNB-75 CNS = test system: SNB-75 CNS
# SF-268 CNS = test system: SF-268 CNS
# CAKI-1 renal = test system: CAKI-1 renal
# MOLT-4 leukemia = test system: MOLT-4 leukemia
# SK-MEL-2 melanoma = test system: SK-MEL-2 melanoma
# DU-145 prostate = test system: DU-145 prostate
# SR leukemia = test system: SR leukemia
smiles,measurement,setting,value
CC(=O)OC1CCC2(C)C(=CCC3C4CC(CN5CC5)C(=O)C4(C)CCC32)C1 (centres undefined),GI50,SW-620 colon,3.17 µM
same,TGI,SW-620 colon,13.3 µM
same,GI50,786-0 renal,7.91 µM
same,TGI,786-0 renal,20.9 µM
same,GI50,LOX IMVI melanoma,6.58 µM
same,TGI,LOX IMVI melanoma,18.2 µM
same,GI50,UACC-62 melanoma,11.7 µM
same,TGI,UACC-62 melanoma,24.6 µM
same,GI50,SK-MEL-28 melanoma,13.5 µM
same,TGI,SK-MEL-28 melanoma,27.3 µM
same,GI50,MDA-MB-231 breast,11.8 µM
same,TGI,MDA-MB-231 breast,25 µM
same,GI50,COLO 205 colon,3.71 µM
same,TGI,COLO 205 colon,12 µM
same,GI50,OVCAR-5 ovarian,17.3 µM
same,TGI,OVCAR-5 ovarian,33.2 µM
same,GI50,UO-31 renal,2.99 µM
same,TGI,UO-31 renal,10.4 µM
same,GI50,RXF 393 renal,9.77 µM
same,TGI,RXF 393 renal,24.1 µM
same,GI50,OVCAR-4 ovarian,2.8 µM
same,TGI,OVCAR-4 ovarian,9.55 µM
same,GI50,OVCAR-3 ovarian,4.63 µM
same,TGI,OVCAR-3 ovarian,14.8 µM
same,GI50,SF-295 CNS,22 µM
same,TGI,SF-295 CNS,> 55.4 µM
same,GI50,U251 CNS,13.6 µM
same,TGI,U251 CNS,27.6 µM
same,GI50,CCRF-CEM leukemia,2.79 µM
same,TGI,CCRF-CEM leukemia,11.4 µM
same,GI50,IGROV1 ovarian,4.23 µM
same,TGI,IGROV1 ovarian,15.2 µM
same,GI50,HT29 colon,3.39 µM
same,TGI,HT29 colon,12.6 µM
same,GI50,MDA-MB-435,14.8 µM
same,TGI,MDA-MB-435,28.4 µM
same,GI50,BT-549 breast,10.4 µM
same,TGI,BT-549 breast,22.9 µM
same,GI50,MALME-3M melanoma,2.21 µM
same,TGI,MALME-3M melanoma,5.56 µM
same,GI50,NCI-H460 lung,12.2 µM
same,TGI,NCI-H460 lung,29.5 µM
same,GI50,ACHN renal,4.17 µM
same,TGI,ACHN renal,15.7 µM
same,GI50,T-47D breast,0.914 µM
same,TGI,T-47D breast,2.7 µM
same,GI50,M14 melanoma,14.2 µM
same,TGI,M14 melanoma,31.7 µM
same,GI50,SNB-19 CNS,14.1 µM
same,TGI,SNB-19 CNS,29.5 µM
same,GI50,UACC-257 melanoma,12.9 µM
same,TGI,UACC-257 melanoma,26.4 µM
same,GI50,HS 578T breast,20.4 µM
same,TGI,HS 578T breast,65.8 µM
same,GI50,SF-539 CNS,13.5 µM
same,TGI,SF-539 CNS,26.9 µM
same,GI50,HL-60(TB) leukemia,4.12 µM
same,TGI,HL-60(TB) leukemia,16.8 µM
same,GI50,HCT-15 colon,2.27 µM
same,TGI,HCT-15 colon,5.62 µM
same,GI50,HCT-116 colon,3.44 µM
same,TGI,HCT-116 colon,10.1 µM
same,GI50,KM12 colon,3.11 µM
same,TGI,KM12 colon,11 µM
same,GI50,HCC-2998 colon,14 µM
same,TGI,HCC-2998 colon,30.4 µM
same,GI50,NCI-H522 lung,1.52 µM
same,TGI,NCI-H522 lung,3.26 µM
same,GI50,K-562 leukemia,3.33 µM
same,TGI,K-562 leukemia,14.2 µM
same,GI50,MCF7 breast,0.67 µM
same,TGI,MCF7 breast,2.68 µM
same,GI50,A498 renal,11.4 µM
same,TGI,A498 renal,24.9 µM
same,GI50,HOP-92 NSCLC,11.3 µM
same,TGI,HOP-92 NSCLC,24.1 µM
same,GI50,HOP-62 NSCLC,18.8 µM
same,TGI,HOP-62 NSCLC,33.6 µM
same,GI50,OVCAR-8 ovarian,12.2 µM
same,TGI,OVCAR-8 ovarian,26.2 µM
same,GI50,SK-MEL-5 melanoma,12.7 µM
same,TGI,SK-MEL-5 melanoma,25.9 µM
same,GI50,PC-3 prostate,12.7 µM
same,TGI,PC-3 prostate,26.8 µM
same,GI50,SK-OV-3 ovarian,15.6 µM
same,TGI,SK-OV-3 ovarian,29.6 µM
same,GI50,A549 NSCLC,15.3 µM
same,TGI,A549 NSCLC,42.2 µM
same,GI50,SN12C renal,15.4 µM
same,TGI,SN12C renal,30.4 µM
same,GI50,TK-10 renal,1.89 µM
same,TGI,TK-10 renal,3.82 µM
same,GI50,RPMI-8226 leukemia,1 µM
same,TGI,RPMI-8226 leukemia,6.28 µM
same,GI50,NCI-H23 lung,14 µM
same,TGI,NCI-H23 lung,30 µM
same,GI50,NCI-H226 lung,14.8 µM
same,TGI,NCI-H226 lung,40.2 µM
same,GI50,NCI/ADR-RES ovarian,16 µM
same,TGI,NCI/ADR-RES ovarian,41.5 µM
same,GI50,SNB-75 CNS,10.8 µM
same,TGI,SNB-75 CNS,22.7 µM
same,GI50,SF-268 CNS,13.9 µM
same,TGI,SF-268 CNS,28.2 µM
same,GI50,CAKI-1 renal,2.21 µM
same,TGI,CAKI-1 renal,6.02 µM
same,GI50,MOLT-4 leukemia,3.1 µM
same,TGI,MOLT-4 leukemia,8.3 µM
same,GI50,SK-MEL-2 melanoma,14 µM
same,TGI,SK-MEL-2 melanoma,28.2 µM
same,GI50,DU-145 prostate,8.29 µM
same,TGI,DU-145 prostate,20.4 µM
same,GI50,SR leukemia,3.39 µM
same,TGI,SR leukemia,13.5 µM
